Measurements reported in ChEMBL document CHEMBL1201862, “PubChem BioAssay data set” (2004).
Active and inactive are the calls of the source. For most assays here, no stated cut-off is given here; in the data, actives have a measured EC50 and inactives only a lower limit.

Tests used:
H9c2 = assay: cells; type: functional, cell-based; details: Rattus norvegicus, H9c2, Myocardium;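 further: confirmatory concentration-response retest of ultra-high-throughput screening hits for modulation of myocardial damage; cell death induced by hydrogen peroxide oxidative stress; compound pretreatment for 60 min then peroxide exposure for 2 h; potency is for protecting the cells against peroxide damage rather than for killing them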
[1] = target: T1, Heat shock factor protein 1 (Mus musculus, UniProt P38532); assay: HSF1 potentiators in luciferase reporter cells, confirmation, cell-based, NIH3T3, luminescence, dose retest (AID 435004); type: functional;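 further: stress induced by proteasome inhibitor MG132 added 30 min after compound; luciferase reporter driven by HSF1 response element in NIH3T3 cells; actives raise luminescence as potentiators of the MG132 stress response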
T1 sequence (P38532 whole entry): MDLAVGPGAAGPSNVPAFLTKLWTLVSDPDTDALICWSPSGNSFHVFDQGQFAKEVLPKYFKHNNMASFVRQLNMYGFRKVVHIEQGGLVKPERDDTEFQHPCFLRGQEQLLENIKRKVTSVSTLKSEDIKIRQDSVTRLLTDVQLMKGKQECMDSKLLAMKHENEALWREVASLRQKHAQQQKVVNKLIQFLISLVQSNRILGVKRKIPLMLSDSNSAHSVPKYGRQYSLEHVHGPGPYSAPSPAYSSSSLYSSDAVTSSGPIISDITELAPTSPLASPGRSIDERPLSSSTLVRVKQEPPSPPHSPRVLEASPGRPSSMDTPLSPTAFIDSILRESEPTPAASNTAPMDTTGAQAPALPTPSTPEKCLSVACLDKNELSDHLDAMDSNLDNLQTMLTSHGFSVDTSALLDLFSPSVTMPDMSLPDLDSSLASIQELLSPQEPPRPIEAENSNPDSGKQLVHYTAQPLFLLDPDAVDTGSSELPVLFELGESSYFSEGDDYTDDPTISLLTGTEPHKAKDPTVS

[2] = Luminescence Cell-Based Dose Response HTS to Identify Activators of Luciferase Translation or Activity in H4 […] Cells. [Related pubchem assays: 1829 (Project Summary), 1814 (Primary HTS)]; type: functional
[3] = Luminescence Cell-Based Dose Confirmation HTS to Identify Activators of 5'UTR Stem-Loop Driven Alpha-Synuclein mRNA Translation in H4 Neuroglioblastoma Cells. [Related pubchem assays: 1829 (Project Summary), 1814 (Primary HTS)]; type: functional
H4 = assay: Luminescence Cell-Based Dose Response HTS to Identify Activators of 5'UTR Stem-Loop Driven Prion Protein mRNA Translation in H4 Neuroglioblastoma Cells. [Related pubchem assays: 1829 (Project Summary), 1814 (Primary HTS)]; type: functional; details: Homo sapiens
[4] = HEp-2 cell cytotoxicity, dose response, cytotoxicity control for RSV inhibitor project, HTS (AID 2410); type: functional; details: human respiratory syncytial virus
[5] = Luminescence Cell-Based Dose Retest to Confirm Inhibitors of Cancer Stem Cells. [Related pubchem assays (depositor defined):AID2717, AID2721]; type: functional; details: Homo sapiens
Streptococcus = assay: Group A Streptococcus viability loss, dose response, counter-screen for streptokinase expression inhibitor project, luminescence, BacTiterGlo (AID 1915); type: functional, organism-based;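 further: potency for reduction of bacterial viability or growth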
[6] = test system: Streptococcus sp. 'group A'; assay: growth inhibition of control SK(-) GAS strain, dose response, counter-screen for streptokinase expression inhibitor project, luminescence, kanamycin, BacTiterGlo, confirmation (AID 1900); type: functional, organism-based
Protein skinhead-1 = target: T2, Protein skinhead-1 (Caenorhabditis elegans, UniProt P34707); type: functional
T2 sequence (P34707 whole entry): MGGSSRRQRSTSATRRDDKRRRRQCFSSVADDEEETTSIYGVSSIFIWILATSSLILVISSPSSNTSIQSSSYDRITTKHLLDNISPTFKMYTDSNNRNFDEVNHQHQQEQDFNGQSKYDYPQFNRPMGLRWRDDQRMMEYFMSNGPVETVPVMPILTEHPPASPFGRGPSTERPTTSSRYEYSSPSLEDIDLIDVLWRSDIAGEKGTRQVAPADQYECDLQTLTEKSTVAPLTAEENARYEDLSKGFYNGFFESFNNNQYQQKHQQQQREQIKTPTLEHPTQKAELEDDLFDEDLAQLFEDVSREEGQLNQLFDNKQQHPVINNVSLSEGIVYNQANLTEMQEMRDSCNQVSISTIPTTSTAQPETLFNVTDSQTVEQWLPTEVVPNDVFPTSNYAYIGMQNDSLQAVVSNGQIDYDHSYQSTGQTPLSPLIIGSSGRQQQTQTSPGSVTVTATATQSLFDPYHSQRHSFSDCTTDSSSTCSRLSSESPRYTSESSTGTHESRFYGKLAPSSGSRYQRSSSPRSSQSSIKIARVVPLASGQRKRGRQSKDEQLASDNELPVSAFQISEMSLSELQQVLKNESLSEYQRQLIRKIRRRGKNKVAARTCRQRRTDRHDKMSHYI

Leucine aminopeptidase = target: T3, Leucine aminopeptidase (Plasmodium falciparum 3D7, UniProt Q8IL11); assay: P. falciparum M17LAP inhibitors, primary screen, biochemical, fluorogenic H-Leu-NHMec substrate, 1536-well (AID 1619); type: functional
T3 sequence (Q8IL11 whole entry): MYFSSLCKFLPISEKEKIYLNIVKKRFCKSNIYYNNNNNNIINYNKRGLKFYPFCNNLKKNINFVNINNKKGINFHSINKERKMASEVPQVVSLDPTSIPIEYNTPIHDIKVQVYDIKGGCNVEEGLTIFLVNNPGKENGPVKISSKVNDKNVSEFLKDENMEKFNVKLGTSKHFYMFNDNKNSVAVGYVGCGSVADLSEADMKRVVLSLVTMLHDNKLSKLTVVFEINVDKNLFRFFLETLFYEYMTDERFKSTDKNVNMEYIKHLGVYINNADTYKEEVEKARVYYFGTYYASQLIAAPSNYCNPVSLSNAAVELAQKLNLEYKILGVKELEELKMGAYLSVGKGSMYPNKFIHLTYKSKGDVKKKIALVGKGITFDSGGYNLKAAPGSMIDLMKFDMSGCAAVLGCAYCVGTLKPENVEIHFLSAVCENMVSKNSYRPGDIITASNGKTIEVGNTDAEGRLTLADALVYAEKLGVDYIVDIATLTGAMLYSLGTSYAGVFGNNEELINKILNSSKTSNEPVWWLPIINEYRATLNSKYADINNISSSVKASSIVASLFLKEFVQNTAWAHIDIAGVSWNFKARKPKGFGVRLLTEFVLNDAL

INS1 = assay: beta cell apoptosis inhibitors, cytokine rescue, dose response, luminescence, retest (AID 449756); type: functional, cell-based; details: Rattus norvegicus;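 further: cell death triggered by IL-1 beta plus TNF-alpha plus IFN-gamma mixture; protective hits raise ATP signal compared with cytokine alone wells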
[7] = inhibitors of intracellular T. cruzi replication, confirmation, NIH3T3 host cells, beta-gal luminescence (AID 2044); type: functional, cell-based;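 further: intracellular parasites grown in NIH/3T3 mouse fibroblasts as host cells; luminescent beta-galactosidase reporter signal from transgenic T. cruzi replicating inside host cells; inhibitors lower the luminescence signal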
[8] = cytotoxicity toward NIH3T3 fibroblasts, dose response, counter-screen, cell-based, ATP luminescence, mouse fibroblasts (AID 2010); type: functional;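 further: cells exposed to compound for about 90 hours before reading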

COc1cc(/C=C/C(=O)Nc2ccc3nc4n(c(=O)c3c2)CCCC4)cc(OC)c1OC
IC50 (H9c2): > 79 µM (inactive)

CC1=C(Sc2nc3ccccc3[nH]2)C(=O)NC(C)(C)C1
EC50 [1]: > 260 µM (inactive)

CCOC(=O)C1(Cc2cccc(OC)c2)CCCN(C(=O)c2cc(C)[nH]n2)C1 (configuration not stated)
EC50 [2]: 23.2 µM (active) | EC50 [3]: 12.5 µM (active) | EC50 (H4): > 120 µM (not active)

O=C(NN=Cc1ccc(N2CCOCC2)s1)c1ccc([N+](=O)[O-])cc1
IC50 (H9c2): 13.1 µM (active)

COc1ccc(-c2oc(=O)c3cc(OC)c(OC)cc3c2C#CCCO)cc1
IC50 (H9c2): > 79 µM (inactive)

COc1cc(C(=O)Sc2ccc(Cl)cc2)cc(OC)c1OC
EC50 [1]: 1.49 µM (active) | CC50 [4]: 32.8 µM (active)

CCc1n[nH]c(SCc2ccc(OCC(C)C)cc2)n1
EC50 [2]: 10.2 µM (active) | EC50 [3]: 22.6 µM (active) | EC50 (H4): > 120 µM (not active)

Cc1ccc(C)c(NC(=O)CSc2nc(O)c3c(C(F)(F)F)cc(-c4cccs4)nc3n2)c1
AC50 [5]: 2.92 µM (active) | EC50 (Streptococcus): 3.04 µM (active) | EC50 [6]: 2.45 µM (active)

CC1=C(C(=O)OCC2CCCO2)C(c2ccccc2OC(C)C)C2=C(O)CC(c3ccco3)CC2=N1 (configuration not stated)
IC50 (Protein skinhead-1): > 100 µM (inactive)

Cc1ccc(-c2cn(S(=O)(=O)c3ccc(C)cc3)nc2N)cc1
EC50 [1]: > 260 µM (inactive)

CCn1cc([N+](=O)[O-])c(C(=O)Nc2nc(-c3ccc(C)cc3)c(C)s2)n1
AC50 [5]: 4.24 µM (active)

Cc1cccc(NC(=O)c2ccc(COc3ccc(Cl)cc3Cl)o2)n1
AC50 [5]: 1.18 µM (active)

COc1cc2c(cc1OC)C(COc1ccc3c(C)cc(=O)oc3c1)N(C(=O)c1ccco1)CC2 (configuration not stated)
IC50 (H9c2): > 79 µM (inactive)

Cn1c(=O)n(/N=C/c2ccccc2)c2ccccc21
EC50 [2]: 10.7 µM (active) | EC50 [3]: 17.3 µM (active) | EC50 (H4): 31 µM (active)

COc1ccc2c(c1)c(C(O)CN1CCN(Cc3ccc4c(c3)OCO4)CC1)c(C)n2C (configuration not stated)
IC50 (Protein skinhead-1): > 100 µM (inactive)

CC(C)CCNC(=O)c1ccc2c(SCC(=O)O)c3c(nc2c1)CCCC3
IC50 (Leucine aminopeptidase): 39.2 µM (active)

CC1(C)CC[C@]2(CO)[C@@H](O)C[C@]3(C)C(=CCC4[C@@]5(C)CC[C@H](O)C(C)(C)C5CC[C@]43C)[C@@H]2C1 (some centres not stated)
AC50 [5]: 3.14 µM (active)

O=[N+]([O-])c1cccc(-c2csc(Nc3ccccc3)n2)c1
IC50 (Protein skinhead-1): > 100 µM (inactive) | AC50 [5]: 4.04 µM (active)

Cc1cc(C)c(NC(=O)CN2C(=O)NC3(CCCCC3)C2=O)c(Cl)c1
IC50 (Leucine aminopeptidase): 29.3 µM (active)

CC(=O)c1ccc(NC(=O)CSc2nc(=O)cc(N)n2-c2ccccc2)cc1
EC50 [2]: 12.3 µM (active) | EC50 [3]: 22.5 µM (active) | EC50 (H4): 10.9 µM (active)

c1ccc(-c2csc(-c3ccncc3)n2)cc1
IC50 (Protein skinhead-1): 4.05 µM (active)

CC1=NNC(=O)C1CCC(=O)N/N=C/C(Br)=C/c1ccccc1 (configuration not stated)
IC50 (Leucine aminopeptidase): 8 µM (active)

CCCc1cc(O)nc(SCC(=O)N(C)CC(=O)Nc2ccc(C)cc2)n1
IC50 (Leucine aminopeptidase): 9.77 µM (active)

Cc1ccc(O)c(NC(=O)c2onc(C)c2Cl)c1
EC50 [1]: 3.11 µM (active)

C=CCn1c(CNC(=O)c2ccco2)nnc1SCC(=O)Nc1cccc(Br)c1
IC50 (Leucine aminopeptidase): 90.1 µM (active)

Cc1oc2ccc(NS(=O)(=O)c3ccc(C(C)(C)C)cc3)cc2c1C(=O)Nc1ccccc1
EC50 [1]: > 260 µM (inactive)

CC(C)c1ccc2[nH]c3c(c2c1)[C@@H]1CCN2C(=O)CCC[C@H](C3)[C@H]12
EC50 [2]: 53.6 µM (active) | EC50 [3]: 11.9 µM (active) | EC50 (H4): > 120 µM (not active)

Cc1cc(C)nc(NC(=O)CSc2nc3ccccc3s2)n1
EC50 [2]: 48.4 µM (active) | EC50 [3]: 4.91 µM (active) | EC50 (H4): 15.1 µM (active)

O=C(CSc1nnc[nH]1)Nc1cccc2ccccc12
IC50 (Leucine aminopeptidase): 29.2 µM (active)

O=C1NC(c2ccccc2)=N/C1=C/c1ccco1
EC50 [2]: 55.5 µM (active) | EC50 [3]: 0.322 µM (active) | EC50 (H4): 5.71 µM (active)

CCn1c(C)c(C)c2cc(C(=O)N3CCc4ccccc4C3)ccc21
IC50 (Protein skinhead-1): > 100 µM (inactive) | AC50 (INS1): 4.05 µM (active)

CN1CCN(c2ccc(NC(=O)COc3ccc(Cl)cc3Cl)cc2)CC1
AC50 [5]: 2.6 µM (active)

Cc1ccc(-c2nc(-c3ccncc3)no2)c(C)c1
IC50 (Protein skinhead-1): 40.9 µM (active)

CC1(C)CC(=O)c2sc(NC(=O)C(C)(C)C)nc2C1
EC50 [2]: 1.31 µM (active) | EC50 [3]: 16 µM (active) | EC50 (H4): 18.5 µM (active)

Cc1[nH]c2ccccc2c1CN1CCN(c2ccccn2)CC1
EC50 [1]: 84 µM (active) | EC50 [7]: 1.28 µM (active) | EC50 [8]: > 60 µM (not active) | AC50 (INS1): 4.21 µM (active)

O=C(C=Cc1cccs1)c1ccc(Cl)s1
IC50 (Protein skinhead-1): 19.7 µM (active)

CCOCCCNC(=O)C(c1ccc(Cl)cc1)N1CCC2(CC1)OCCO2 (configuration not stated)
IC50 (Protein skinhead-1): > 100 µM (inactive)

COc1ccc(-c2c(C)c3cc(O)ccc3oc2=O)cc1OC
EC50 [1]: > 260 µM (inactive)

Cc1cc(C)cc(NC(=O)CSc2ncc(S(=O)(=O)c3ccccc3)c(=O)[nH]2)c1
IC50 (Leucine aminopeptidase): 11.9 µM (active)

CC(C)(c1ccccc1)c1ccc(OCCCN2CCNCC2)cc1
EC50 [1]: 60.7 µM (active) | EC50 [7]: 2.42 µM (active) | EC50 [8]: 15.1 µM (active) | AC50 [5]: 0.2 µM (active)
